From ChEMBL document CHEMBL1153623, “Synthesis and bioactivity of substituted indan-1-ylideneaminoguanidine derivatives” (Eur J Med Chem, 2009)

Key:
Rattus norvegicus [1] = test: Cardioprotective activity against ischemic Sprague-Dawley rat heart assessed as reduction in infarct size at 1 mg/kg, iv treated 5 mins before left anterior descending coronary artery occlusion measured after 2 hrs of reperfusion by Evans staining; type: functional; set-up: scale not given: the % may be the effect or the level left
[2] = target: Sodium/hydrogen exchanger 1 (Rattus norvegicus, UniProt P26431); test: Inhibition of NHE1 in Sprague-Dawley rat platelet-rich plasma by optical swelling assay
Rattus norvegicus [3] = test: Cardioprotective activity against ischemic Sprague-Dawley rat heart assessed as serum creatine kinase level at 1 mg/kg, iv treated 5 mins before left anterior descending coronary artery occlusion measured after 2 hrs of reperfusion by Evans staining; type: functional
Rattus norvegicus [4] = test: Cardioprotective activity against ischemic Sprague-Dawley rat heart assessed as serum creatine kinase level at 0.25 mg/kg, iv treated 5 mins before left anterior descending coronary artery occlusion measured after 2 hrs of reperfusion by Evans staining; type: functional
Rattus norvegicus [5] = test: Cardioprotective activity against ischemic Sprague-Dawley rat heart assessed as serum creatine kinase level at 0.5 mg/kg, iv treated 5 mins before left anterior descending coronary artery occlusion measured after 2 hrs of reperfusion by Evans staining; type: functional
[6] = target: Sodium/hydrogen exchanger 1 (Rattus norvegicus) (UniProt P26431); test: Ratio of cariporide IC50 to compound IC50 for NHE1 in Sprague-Dawley rat platelet-rich plasma by optical swelling assay
Rattus norvegicus [7] = test: Cardioprotective activity against ischemic Sprague-Dawley rat heart assessed as reduction in infarct size at 0.5 mg/kg, iv treated 5 mins before left anterior descending coronary artery occlusion measured after 2 hrs of reperfusion by Evans staining; type: functional; set-up: scale not given: the % may be the effect or the level left
Rattus norvegicus [8] = test: Cardioprotective activity against ischemic Sprague-Dawley rat heart assessed as reduction in infarct size at 0.25 mg/kg, iv treated 5 mins before left anterior descending coronary artery occlusion measured after 2 hrs of reperfusion by Evans staining; type: functional; set-up: scale not given: the % may be the effect or the level left

Chain of Sodium/hydrogen exchanger 1 (P26431 whole entry, the tested form may be a part): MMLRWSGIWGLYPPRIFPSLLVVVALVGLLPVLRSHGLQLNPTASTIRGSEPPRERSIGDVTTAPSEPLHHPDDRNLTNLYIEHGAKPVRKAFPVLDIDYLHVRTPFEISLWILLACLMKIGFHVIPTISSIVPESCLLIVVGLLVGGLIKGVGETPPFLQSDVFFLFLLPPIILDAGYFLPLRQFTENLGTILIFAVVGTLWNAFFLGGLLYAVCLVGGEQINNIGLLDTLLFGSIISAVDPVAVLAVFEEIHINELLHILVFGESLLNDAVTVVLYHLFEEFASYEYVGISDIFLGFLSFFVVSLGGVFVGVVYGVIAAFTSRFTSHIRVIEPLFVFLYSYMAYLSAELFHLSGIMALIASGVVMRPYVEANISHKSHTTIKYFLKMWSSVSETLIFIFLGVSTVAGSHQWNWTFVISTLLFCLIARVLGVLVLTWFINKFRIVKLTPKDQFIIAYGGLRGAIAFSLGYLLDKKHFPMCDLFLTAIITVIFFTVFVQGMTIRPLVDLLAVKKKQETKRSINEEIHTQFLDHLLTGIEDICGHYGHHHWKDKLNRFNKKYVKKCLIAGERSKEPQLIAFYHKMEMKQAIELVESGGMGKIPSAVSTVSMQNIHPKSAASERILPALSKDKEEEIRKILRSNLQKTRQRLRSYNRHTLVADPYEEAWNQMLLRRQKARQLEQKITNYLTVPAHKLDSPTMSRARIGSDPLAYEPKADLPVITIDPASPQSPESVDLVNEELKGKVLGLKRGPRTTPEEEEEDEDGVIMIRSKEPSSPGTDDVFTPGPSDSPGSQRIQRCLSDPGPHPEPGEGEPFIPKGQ
Chain of Sodium/hydrogen exchanger 1 (Rattus norvegicus) (P26431 whole entry, the tested form may be a part): as above

IC50 [2]	SMILES	other results
0.00173 µM	Cl.Cl.NC(N)=N/N=C1\c2ccccc2CC1Sc1nc2ccccc2[nH]1 (configuration not stated)	Activity (Rattus norvegicus [1]): 42.89%; Activity (Rattus norvegicus [3]): 3.02 U/ml
	CC(C)c1ccc(C(=O)N=C(N)N)cc1S(C)(=O)=O [CARIPORIDE]	Activity (Rattus norvegicus [1]): 45.74%; Activity (Rattus norvegicus [3]): 3.53 U/ml
0.0389 µM	NC(N)=N/N=C1\c2cc(Cl)ccc2CC1Sc1nc2cc([N+](=O)[O-])ccc2[nH]1 (configuration not stated)	
0.0122 µM	NC(N)=N/N=C1\c2ccc(Cl)cc2CC1Sc1nc2cc([N+](=O)[O-])ccc2[nH]1 (configuration not stated)	
0.0255 µM	COc1ccc2[nH]c(SC3Cc4ccc(F)cc4/C3=N\N=C(N)N)nc2c1 (configuration not stated)	
0.00174 µM	Cl.NC(N)=N/N=C1\c2ccccc2CC1Sc1nc2cc([N+](=O)[O-])ccc2[nH]1 (configuration not stated)	Activity (Rattus norvegicus [1]): 49.18%; Activity (Rattus norvegicus [3]): 4.12 U/ml
0.0203 µM	NC(N)=N/N=C1\c2cccc(Cl)c2CC1Sc1nc2ccccc2s1 (configuration not stated)	
0.00198 µM	COc1cc2c(c(OC)c1OC)CC(Sc1nc3ccccc3s1)/C2=N/N=C(N)N (configuration not stated)	
0.00234 µM	NC(N)=N/N=C1\c2ccc(Cl)cc2CC1Sc1nc2ccccc2s1 (configuration not stated)	
0.038 µM	NC(N)=N/N=C1\c2cc(F)ccc2CC1Sc1nc2cc([N+](=O)[O-])ccc2[nH]1 (configuration not stated)	
0.654 µM	NC(N)=N/N=C1\c2cc(Cl)cc(Cl)c2CC1Sc1nc2ccccc2[nH]1 (configuration not stated)	
0.0315 µM	COc1cc2c(c(OC)c1OC)CC(Sc1nc3cc([N+](=O)[O-])ccc3[nH]1)/C2=N/N=C(N)N (configuration not stated)	
0.0108 µM	COc1cc2c(c(OC)c1OC)CC(Sc1nc3ccccc3[nH]1)/C2=N/N=C(N)N (configuration not stated)	
0.00117 µM	NC(N)=N/N=C1\c2ccc([N+](=O)[O-])cc2CC1Sc1nc2ccccc2[nH]1 (configuration not stated)	
0.287 µM	NC(N)=N/N=C1\c2cc(F)ccc2CC1Sc1nc2ccccc2s1 (configuration not stated)	
0.0346 µM	NC(N)=N/N=C1\c2cc(Cl)ccc2CC1Sc1nc2ccccc2s1 (configuration not stated)	
0.0214 µM	NC(N)=N/N=C1\c2ccc(Cl)cc2CC1Sc1nc2ccccc2[nH]1 (configuration not stated)	
0.326 µM	NC(N)=N/N=C1\c2cc(Cl)ccc2CC1Sc1nc2ccccc2[nH]1 (configuration not stated)	
0.0112 µM	COc1cc2c(cc1OC)/C(=N\N=C(N)N)C(Sc1nc3ccccc3[nH]1)C2 (configuration not stated)	
0.0019 µM	COc1ccc2c(c1)/C(=N\N=C(N)N)C(Sc1nc3ccccc3s1)C2.Cl (configuration not stated)	Activity (Rattus norvegicus [1]): 43.24%; Activity (Rattus norvegicus [3]): 3.38 U/ml
0.00094 µM	Br.COc1ccc2[nH]c(SC3Cc4cc(Cl)ccc4/C3=N\N=C(N)N)nc2c1.Cl (configuration not stated)	Activity (Rattus norvegicus [4]): 3.72 U/ml; Activity (Rattus norvegicus [5]): 3.34 U/ml; Activity (Rattus norvegicus [1]): 36.16%; Ratio IC50 [6]: 69; Activity (Rattus norvegicus [3]): 2.82 U/ml; Activity (Rattus norvegicus [7]): 40.87%; Activity (Rattus norvegicus [8]): 42.27%
0.00244 µM	COc1cc2c(cc1OC)/C(=N\N=C(N)N)C(Sc1nc3ccccc3s1)C2 (configuration not stated)	
0.0168 µM	COc1ccc2[nH]c(SC3Cc4ccccc4/C3=N\N=C(N)N)nc2c1 (configuration not stated)	
